Test results: ChEMBL document CHEMBL1151519, “Xanthene derived potent nonpeptidic inhibitors of recombinant human calpain I” (Bioorg Med Chem Lett, 1996)
pIC50: −log10 of the molar value.

Key:
[1] = target: T1, Calpain-1 catalytic subunit (Homo sapiens, UniProt P07384); assay: (§1) Inhibitory activity of compound against recombinant human Calpain 1
T1 sequence (P07384 whole entry): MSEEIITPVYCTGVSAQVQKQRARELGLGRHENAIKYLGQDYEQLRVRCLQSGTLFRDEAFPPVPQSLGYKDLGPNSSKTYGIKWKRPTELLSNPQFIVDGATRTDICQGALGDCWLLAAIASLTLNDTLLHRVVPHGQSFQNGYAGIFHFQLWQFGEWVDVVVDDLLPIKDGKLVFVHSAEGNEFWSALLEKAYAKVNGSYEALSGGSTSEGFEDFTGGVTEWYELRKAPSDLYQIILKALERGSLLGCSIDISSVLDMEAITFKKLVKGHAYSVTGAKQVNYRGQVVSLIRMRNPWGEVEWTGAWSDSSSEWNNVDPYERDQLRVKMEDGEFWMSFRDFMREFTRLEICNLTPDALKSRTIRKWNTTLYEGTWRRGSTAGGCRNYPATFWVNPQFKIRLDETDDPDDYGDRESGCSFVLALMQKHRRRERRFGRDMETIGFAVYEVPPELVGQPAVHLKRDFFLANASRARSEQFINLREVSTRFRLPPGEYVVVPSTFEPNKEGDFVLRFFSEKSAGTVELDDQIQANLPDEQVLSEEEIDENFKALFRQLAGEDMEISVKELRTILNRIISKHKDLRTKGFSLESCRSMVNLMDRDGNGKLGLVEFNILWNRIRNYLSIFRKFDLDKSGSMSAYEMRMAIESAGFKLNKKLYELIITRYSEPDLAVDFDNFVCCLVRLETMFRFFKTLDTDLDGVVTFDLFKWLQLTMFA

[2] = target: T2, Calpain-1 catalytic subunit (Homo sapiens) (UniProt P07384); assay: as §1
T2 sequence (whole entry): T1 sequence (P07384 whole entry)

SMILES	pIC50 [1]	K obs / 1 [2]
CCNC(=O)C(=O)C(CC)NC(=O)[C@H](CC(C)C)NC(=O)OCc1ccccc1 (stereo partly specified)	6.62	
CC(C)C[C@H](CC(=O)C1c2ccccc2Oc2ccccc21)C(=O)N[C@H](C=O)CC(C)C	7.60	
CCNC(=O)C(CC(C)C)NC(=O)[C@@H](CC(=O)C1c2ccccc2Oc2ccccc21)CC(C)C (stereo partly specified)	6.89	
CC(C)C[C@H](CC(=O)C1c2ccccc2Oc2ccccc21)C(=O)NC(Cc1ccccc1)C(=O)CF (stereo partly specified)		76000 M⁻¹ s⁻¹

Further lines, results first:

pIC50 [1]	K obs / 1 [2]	SMILES
7.30		CC(C)C[C@H](CC(=O)C(c1ccccc1)c1ccccc1)C(=O)N[C@H](C=O)CC(C)C
6.86		CC(C)C[C@H](CC(=O)CCCCc1ccccc1)C(=O)N[C@H](C=O)CC(C)C
